This note sets out measurements from patent publication US20040053989A1, “Dithiolthione compounds for the treatment of neurological disorders and for memory enhancement” (Patrick Prendergast, priority 1999, published 2004).

For orientation: % Inhibition means the drop in the measured response relative to a control, in per cent. Lower therefore signals a weak effect.

For data set [1] the following is noted: doses of oltipraz effective at chelating in situ or abolishing amyloid-β toxicity; preliminary data.
The test system of data set [2] is P. falciparum 3D7. The protocol:
For in-vitro antimalarial testings, micro-titer plates were used. The concentration of drugs was prepared as pMol/well according to WHO standard procedures (WHO, 1990). The test compound was dissolved in 15% DMSO in sterile RPMI 1640.
The micro-titer plates were predosed with various concentration of the test compound. 50 μL of parasitised erythrocyte suspension in RPMI-1640 (0.2 ml erythrocyte +0.3 ml serum +4-5 ml RPMI-1640) were dispensed in microtiter wells containing various concentrations of drug. Triplicate readings were made for each concentration.
The testing was carried out according to the procedure of Desjardins et al. 1979. After 30 hr culture at 37 degrees C., the same microtiter plates from schizont inhibition assays with another triplicate wells were pulsed with ^3H-hypoxanthine for overnight. The cell suspensions were washed twice on millipore glass fiber filter with Millipore filter apparatus. The filter discs were counted for DPM by Beckman LS6000-scintillation counter. The activity of the drug was measured by plotting DPM against concentration of drug.

For data set [3] the following is noted: sections treated 2 hrs or overnight.
For data set [4], the system named is L. donovani. Briefly: In vitro anti-protozoal activity, L. donovani. Type of data set: cell-based.
Data set [5] relates to Primary fibroblast cultures. Description: H2O2 toxicity in primary fibroblast cultures, murine model for oxidative stress (MTT). Type of data set: cell-based, mice. The following applies: H2O2 150 μM, Oltipraz 25 μM. The protocol:
(§1) Primary fibroblast cultures were prepared from normal mice (non Tg), mice transfected to produce human wild type presenilin 1 (WT Tg) or mice transfected to produce mutant human presenilin 1 (Mut Tg). All mice are derived from an identical genetic background. […] 50U/mL of catalase was used as a benchmark antioxidant against H2O2 toxicity. Cell viability was determined with the MTT reduction assay. […] Cell viability was determined with the MTT assay.

Data set [6] concerns T.b.rhodesiense STIB900. Description: In vitro anti-protozoal activity, T.b.rhodesiense STIB900. Type of data set: cell-based.
Data set [7] has as its system Mut Tg fibroblasts. To be noted: Oltipraz 10, 25 and 50 μM; fibroblasts treated with toxic levels of BSO. The method, then: as §1
Data set [8] has as its system T. cruzi. Briefly: In vitro anti-protozoal activity, T. cruzi. It is filed as cell-based.
The test system of data set [9] is neurons and clonal cell lines. Description: Attenuation of amyloid-β toxicity. It is filed as cell-based. To be noted: for attenuation of amyloid-β toxicity, dose dependence: pre-incubated with amyloid-β. An excerpt:
In vitro, amyloid-β is toxic to neurons and clonal cell lines.

Data set [10] relates to Primary cortical neuron cultures. The following applies: Oltipraz 20 μM, Aβ1-42 25 μM, 5 days, MTT; p<0.05, ANOVA. The method, then:
Primary cortical neuron cultures were established from E14 mice. […] Cultures were incubated for 5 days (37° C.) and then cell viability was determined using the MTT reduction assay. Cultures were also monitored for morphological changes by phase contrast microscopy. The MTT assay was performed by adding water soluble MTT to the culture medium at 0.5 mg/mL and incubating for 30 min. […] The culture medium was removed and the MTT solubilized in DMSO. Aliquots of solubilized MTT were read on a spectrophotometric plate reader at 570 nm.

Data set [11] is described as follows: H2O2-dependent oxidation of 3,3′-diaminobenzidine (DAB) by lesions in AD brain tissue sections after chelator treatment. The following applies: prior treatment of AD brain tissue sections. Also noted: species or system human. From the text: AD is associated with abnormalities of iron metabolism including increased levels of free iron as well as altered levels of iron transport and storage proteins. […] In addition to the NFT and Aβ deposits, redox active metals can be identified in the cytoplasm by the same DAB reaction. […] Although in situ histochemical techniques lack the sensitivity to detect copper, copper (as well as iron) could contribute to the redox activity. The relative effectiveness of copper- and iron-selective chelating agents was used to remove the lesion-dependent redox activity, which provided evidence for both copper- and iron-mediated redox activity in AD. […] Also, DAB oxidation was inhibited by chelation of metals with […]

Molecules are shown by their SMILES. Entries after “also recorded” stand apart in the source; their conditions may differ. Where two headings read alike, the source gives them in different places.

On to `Cc1c(-c2cnccn2)ssc1=S` [Oltipraz, oltipraz], for which, in data set [1], the neurotoxicity in vitro result is recorded as “little/no neurotoxicity”. Also, the “% Inhibition” value turned out to be 0% in data set [2] (concentration 1); 4.4% in [2] (concentration 3); 96.5% in [2] (concentration 10); 100% in [2] (concentration 30); 0% in data set [4] (concentration 10); 3.2% in data set [4] (concentration 30). For the same compound, the “% Inhibition” value in [6] (concentration 10) is reported as 0%; in data set [6] (concentration 30) it was 42.5%; in data set [8] (concentration 1), 4.3%; in [8] (concentration 3), 38.6%; in data set [8] (concentration 10), 54.6%; in [8] (concentration 30) it was 99.7%. Moreover, the “iron removal compared with DFX” value in data set [3] was “not as effective as DFX”. In addition, in data set [5], the “protective effect relative to that achieved with 50U/mL catalase” value is recorded as “about two thirds”. In addition, the “protective effect against H2O2 toxicity” value is “not in fibroblasts from Mut Tg mice” in data set [5] (fibroblasts from Mut Tg mice (mutant human presenilin 1)), “significant protective effect” in data set [5] (fibroblasts from WT Tg mice (human wild type presenilin 1)) and “significant protective effect” in data set [5] (fibroblasts from non Tg mice). In [7], the cell viability restored was 100%. In addition, the “ED50 column, second value in parentheses (not explained)” value in [8] (line below the ED50) is “(23.8) μg/ml”. In addition, the “attenuation of the neurotoxicity of amyloid-β” value in data set [9] is given as “significantly attenuate”. The “attenuation of amyloid-β toxicity, dose dependence” value is recorded as “reduced in a dose-dependent manner similar to that of deferoxamine” in data set [9] and “attenuate its toxicity in a dose-dependent manner similar to that of deferoxamine” in [9] (listed as oltipraz). Further, in data set [9] (shown in a figure), the “cell survival in brain tissue sections” value is “increase cell survival”. The “cell viability compared to Aβ1-42 alone” value in data set [10] was “small increase in cell viability”.
In the case of `O=C(O)CN(CCN(CC(=O)O)CC(=O)O)CCN(CC(=O)O)CC(=O)O` [DTPA, detapac], the “inhibition of lesion-associated DAB oxidation” value in [11] (1 mM chelator) is “inhibited more than half”; in data set [11] (10 mM chelator) it was “completely abolished; also recorded: nearly all”; in [11] (100 mM chelator), “abolished all”.
